Reference: US10980890B2, “Compounds comprising self-immolative group” (LegoChem Biosciences, Inc., priority 2014, dated 2021)
Square brackets hold non-standard residues; d marks the D form. Peptide text beside a SMILES is read from it. Dolaproine = CO[C@@H]([C@@H]1CCCN1)[C@@H](C)C(=O)O; Dil = CC[C@H](C)[C@H](NC)[C@@H](CC(=O)O)OC; NMeV = CN[C@H](C(=O)O)C(C)C

Key:
Test in all cases: Anti-proliferation assay of ADC (SRB)
Format in all cases: cell-based, human
Conditions in all cases: 72 hours, drug
[1] = test system: SK-Br3 (HER2 positive) breast cancer cell line
Procedure: (§1) Anti-cell proliferation activities of antibodies, a drug, and ADC(s) illustrated in the following Table 2 on cancer cell lines were measured.
(§2) As the cancer cell lines, commercialized human breast cancer cell lines MCF-7 (HER2-negative or -normal) and SK-Br3 (HER2 positive), and a commercialized ovarian cancer cell lines SK-OV3 (HER2 positive) were used. As the drug, MMAF was used.
After 72 hours, the numbers of living cells were quantified using a Sulforhodamine B (SRB) dye.

[2] = test system: SK-OV3 (HER2 positive) ovarian cancer cell line
Procedure: as §1, §2
(§3) After each of the cancer cell lines was seeded in a 96-well plate at 10,000 cells/each well and cultured for 24 hours, the antibody and ADC were treated at a concentration of 0.01563-2 μg/ml (2 times serial dilution), and the drug was treated at a concentration of 4-500 nM (2 times serial dilution). After 72 hours, the numbers of living cells were quantified using a Sulforhodamine B (SRB) dye.

[3] = test system: MCF-7 (HER2-negative or -normal) breast cancer cell line
Procedure: as §1, §2, §3

CC[C@H](C)[C@@H]([C@@H](CC(=O)N1CCC[C@H]1[C@H](OC)[C@@H](C)C(=O)N[C@@H](Cc1ccccc1)C(=O)O)OC)N(C)C(=O)[C@@H](NC(=O)[C@@H](NC)C(C)C)C(C)C [MMAF, monomethylauristatin F] (H-[NMeV]V[Dil][Dolaproine]F-OH)
IC50 [1]: 136 nM | IC50 [2]: 227 nM | IC50 [3]: 142 nM
